Test results from ChEMBL document CHEMBL1146947, “Synthesis and ocular effects of imidazole nitrolic acid and amidoxime esters” (Bioorg Med Chem Lett, 2006).
The source made the active and inactive calls. The calls are words filed in the database; no cut-off is given here.

Key:
[1] = target: T1, Soluble guanylate cyclase (Homo sapiens) (UniProt Q02153+O75343+P33402+Q02108); assay: Effect on cGMP production in porcine iris-ciliary body at 10 uM; type: functional; conditions: Sus scrofa, target entry is the homologue from another species
[2] = target: T1, Soluble guanylate cyclase (Homo sapiens); assay: Effect on cGMP production in porcine iris-ciliary body at 100 uM; type: functional; conditions: Sus scrofa, target entry is the homologue from another species
[3] = test system: Oryctolagus cuniculus; assay: Lowering of intraocular pressure in rabbit eye at 10 mM administered topically; type: functional, organism-based
[4] = organism: Oryctolagus cuniculus; assay: Lowering of intraocular pressure in rabbit eye intravitreally injected with 10 mM; type: functional, organism-based

SMILES | Activity [1] [pmol/mg] | Activity [2] [pmol/mg] | Activity [3] | Activity [4]
CC(C)(C)C(=O)O/N=C(/c1c[nH]cn1)[N+](=O)[O-] | 0.36 | 0.73 | inactive | –
CC(=O)ONC(=N)c1cncn1C | – | – | inactive | inactive
CCCC(=O)O/N=C(/c1c[nH]cn1)[N+](=O)[O-] | 0.5 | 0.38 | inactive | –
CC(=O)O/N=C(/c1c[nH]cn1)[N+](=O)[O-] | 0.45 | 0.78 | inactive | –
CCCC(=O)ONC(=N)c1cncn1C | 0.23 | 0.24 | inactive | –
Cn1cncc1C(=N)NOC(=O)C(C)(C)C | 0.63 | 0.24 | inactive | –
